Values joined by “and” are separate entries in the source; they are usually repeats but may differ in a detail not shown here. Equal values may be shown once. “Also recorded” adds a separate entry of the source.
Tests used:
Th1 cell differentiation = experiment: Th1 cell differentiation, naive CD4+ T cells under Th1 conditions; assay type: cell-based, mouse; conditions: 80 µM, five days
Experimental: C57BL/6 mice were purchased from Clea (Clea Japan, Inc., Tokyo, Japan). Total CD4^+ T cells isolated from mouse spleen were prepared using a FITC anti-mouse CD4 antibody (Cat#100510, RM4–5, BioLegend) and anti-FITC-microbeads (Cat#130-097-050, Miltenyi Biotec). Naive CD4^+ T cells (CD44^low, CD62L^high) were prepared using a MojoSort Mouse CD4 T cell Isolation Kit (Cat#480033), BioLegend). Biotinylated anti-CD44 (Cat#103004, IM7) and anti-CD25 antibodies (Cat#102004, PC61) were purchased from BioLegend. CD4^+ T cells (7.5 × 10^5) were stimulated using immobilized anti-TCR-β mAb (3 µg/mL, H57–597, BioLegend) plus an anti-CD28 mAb (1.0 µg/mL, cat#40–0281, TONBO Biosciences) for 2 days, and then, the cells were further expanded under similar conditions for an additional 3 days. […]
The in vitro differentiated CD4^+ T cells were stimulated using an immobilized anti-TCR-β mAb (3 µg/ml, H57–597, BioLegend) for 6 h in the presence of monensin (2 µM). […] Flow cytometry was performed using a Gallios Flow Cytometer instrument (Beckman Coulter) and a FACS Caliber instrument (BD Biosciences) and the results were analysed using the FlowJo software program (Tree Star, Ashland, OR, USA). […]
(B) Cytokine production induced in the pyrrothiogatain-treated Th1 cells shown in panel (A) was determined by ELISA.

[1] = system: GATA3-dependent IL-5 promoter activation; experiment: IL-5 promoter luciferase reporter assay in HEK293T cells; assay type: cell-based; conditions: PMA 30 ng/mL, 0 to 30 µM
Experimental: The IL-5 promoter activity was determined as previously described[22],[23]. In brief, HEK293T cells were co-transfected with a firefly luciferase reporter (pGL3-IL-5 promoter), a renilla luciferase plasmid, and an expression vector (pcDNA3.1) using TransIT-LTI Regent (Cat#MIR2304, Mirus). Six hours after transfection, cells were treated with pyrrothiogatain (0 to 30 µM) and PMA (30 ng/mL) for 18 hours. The luciferase activity was measured using a Dual-Luciferase Reporter Assay System (cat#E1910, Promega).

[2] = system: OVA-induced allergic mice; experiment: OVA-induced allergic airway inflammation model; assay type: in vivo, mouse; conditions: 20 mg/kg intraperitoneally every day from day 0 to 6, versus vehicle control
Experimental: C57BL/6 mice at 7 weeks old were immunized intraperitoneally with 100 µg OVA (Cat#A5503, Sigma) in 2 % aluminium hydroxide gel (Cat#vax-alu-250, InvivoGen) on day 0. The mice were challenged intranasally with 100 µg OVA in saline on days 7, 8 and 9. Pyrrothiogatain was administrated intraperitoneally at a concentration of 20 mg/kg in PBS every day from day 0 to 6. The day after the last OVA challenge, BAL fluid cells were subjected to histological examination using the Diff Quick stain (Cat#16920, Sysmex). All animal experiments received approval from the Ehime University Administrative Panel for Animal Care. All animal care was conducted in accordance with the guidelines of Ehime University.

GATA4 = molecular target: T1, GATA4 (Homo sapiens, UniProt P43694); experiment: AlphaScreen DNA-binding assay, GATA4; conditions: pyrrothiogatain 0 to 200 µM
T1 construct: we tried to synthesize their full-length proteins using the cell-free system; made in house; host or cells: wheat cell-free protein synthesis system (WEPRO1240 kit)
T1 sequence (P43694 whole entry, species assumed): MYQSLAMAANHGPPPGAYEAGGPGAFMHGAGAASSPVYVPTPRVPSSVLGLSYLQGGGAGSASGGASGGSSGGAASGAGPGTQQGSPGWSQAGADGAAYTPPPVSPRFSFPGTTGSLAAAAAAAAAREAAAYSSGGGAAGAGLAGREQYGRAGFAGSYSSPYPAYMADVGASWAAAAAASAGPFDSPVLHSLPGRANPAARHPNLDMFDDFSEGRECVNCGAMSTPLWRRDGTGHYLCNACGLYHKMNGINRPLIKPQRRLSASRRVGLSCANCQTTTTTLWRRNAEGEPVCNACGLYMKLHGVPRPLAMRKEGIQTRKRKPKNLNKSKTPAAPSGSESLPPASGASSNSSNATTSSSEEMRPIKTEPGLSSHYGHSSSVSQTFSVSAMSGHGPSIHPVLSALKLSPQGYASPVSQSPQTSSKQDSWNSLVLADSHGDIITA
Experimental: For the protein-DNA binding assay on a 384-well AlphaPlate (Perkin Elmer), 10 μL of bait protein mixture containing 1 µL FLAG-tagged protein in AlphaScreen Buffer (100 mM Tris-HCl (pH 8.0), 150 mM NaCl, 0.1% Tween 20, and 1 mg/mL BSA) and 5 µL biotinylated oligonucleotide (0–10 µM final concentration) in AlphaScreen Buffer were dispended into the AlphaPlate. Then, the plate was incubated at 26 °C for 1 h. After incubation, 10 μL of the detection mixture containing 0.4 µg/mL Anti-DYKDDDDK antibody (1E6, Wako), 0.1 μL streptavidin-conjugated AlphaScreen donor beads, and 0.1 μL protein A-conjugated AlphaScreen acceptor beads in AlphaScreen Buffer was mixed and incubated at 26 °C for 1 h, and then, the AlphaScreen signal was detected using an EnVision device with the AlphaScreen signal detection program (PerkinElmer).
For the AlphaScreen-based chemical library screening, we used a diverse set of 9,600 synthesized chemicals established by the Drug Discovery Initiative (The University of Tokyo, Tokyo, Japan). All chemical compounds (10 mM) were dissolved in DMSO, and were pre-dispensed into a 384-well Alphaplate (250 nL/well). […] The AlphaScreen signal was detected using an EnVision device with the AlphaScreen signal detection program (PerkinElmer). […]

IC50 (GATA4): ~50 µM and 48 µM
Compound: Cc1ccc(C)n1-c1ccsc1C(=O)O [Pyrrothiogatain, 3-(2,5-dimethyl-1H-pyrrol-1-yl)thiophene-2-carboxylic acid]
Generation of IFN-γ and IL-2 producing Th1 cells (Th1 cell differentiation): modestly increased
GATA3-dependent transcriptional activation of the IL-5 promoter [1]: significantly suppressed
Number of inflammatory cells in the bronchoalveolar lavage (BAL) fluid [2]: no significant difference; also recorded: did not significantly decrease

— PMC6874683, “Pyrrothiogatain acts as an inhibitor of GATA family proteins and inhibits Th2 cell differentiation in vitro” (Scientific Reports, 2019)
